Results on 16 compounds are retold here after patent publication US12509474B2, “Inhibitors of complement factors and uses thereof” (Annexon, Inc., priority 2020, dated 2025).

This assay has as its target T1, human C1s protein (Homo sapiens, UniProt P09871).
T1 construct: A104
T1 sequence (P09871 16-688): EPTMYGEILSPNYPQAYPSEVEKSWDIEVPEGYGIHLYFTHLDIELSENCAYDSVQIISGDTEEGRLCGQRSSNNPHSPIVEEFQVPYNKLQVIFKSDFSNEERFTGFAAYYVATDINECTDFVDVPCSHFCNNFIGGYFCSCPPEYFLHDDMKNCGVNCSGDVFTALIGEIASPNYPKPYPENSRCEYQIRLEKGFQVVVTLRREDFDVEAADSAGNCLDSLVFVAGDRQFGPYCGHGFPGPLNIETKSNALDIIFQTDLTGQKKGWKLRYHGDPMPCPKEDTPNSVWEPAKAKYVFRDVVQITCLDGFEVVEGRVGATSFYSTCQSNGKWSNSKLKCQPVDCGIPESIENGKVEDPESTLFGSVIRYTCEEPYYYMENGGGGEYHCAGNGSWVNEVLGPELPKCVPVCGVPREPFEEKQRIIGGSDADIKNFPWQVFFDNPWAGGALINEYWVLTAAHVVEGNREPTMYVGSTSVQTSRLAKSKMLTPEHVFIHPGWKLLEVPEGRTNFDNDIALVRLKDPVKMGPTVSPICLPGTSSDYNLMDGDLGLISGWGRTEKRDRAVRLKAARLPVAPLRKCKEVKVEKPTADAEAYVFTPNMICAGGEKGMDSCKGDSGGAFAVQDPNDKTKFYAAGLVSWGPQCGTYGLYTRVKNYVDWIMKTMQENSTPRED
The assay is described as follows: C1s enzymatic assay (hydrolysis of YLGR-Rh110-dPro). It is filed as biochemical. The following applies: substrate YLGR-Rh110-dPro 20 μM, 15 min pre-incubation, 60 min RT, fluorescence, read-out: hC1s pIC50 (converted). In short, it runs like this:
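Fluorogenic assay in which C1s cleaves YLGR-Rh110-dPro (20 μM final) to release fluorescent Rh110, in buffer with 0.1 mg/mL BSA. Enzyme was preincubated 15 min with compound before substrate was added. Compounds were run as 11-point curves, with DMSO as high control and Nafamostat as low control.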

Counter-ions that a name gives are not always drawn.

Consider `Nc1cnnc2cc(-c3cc(B(O)O)c4occc4c3)ccc12` [Example 149, [5-(4-aminocinnolin-7-yl)-1-benzofuran-7-yl]boronic Acid Formic Acid Salt], for which the IC50 is 0.603 nM. Turning to `Nc1cnnc2cc(-c3cc(B(O)O)ccc3N3CCCC3)ccc12` [Example 150, [3-(4-aminocinnolin-7-yl)-4-(pyrrolidin-1-yl)phenyl]boronic Acid Formic Acid Salt], the IC50 is 50.1 nM.

In the case of `Nc1cnnc2cc(-c3ccc4c(c3)B(O)ON=C4)ccc12` [Example 156, 7-(4-aminocinnolin-7-yl)-1H-2,3,1-benzoxazonin-1-ol Formic Acid Salt], the IC50 is 55 nM.

Regarding `COc1ccc(B(O)O)cc1-c1ccc2c(O)cnnc2c1` [Example 158, [3-(4-hydroxycinnolin-7-yl)-4-methoxyphenyl]boronic Acid], the IC50 is greater than 25100 nM. With `O=CO.[2H]C([2H])([2H])Oc1ccc(B(O)O)cc1-c1ccc2c(N)cnnc2c1` [Example 159, [3-(4-aminocinnolin-7-yl)-4-(^2H3)methoxyphenyl]boronic Acid Formic Acid Salt] the figure was 1.26 nM.

`COc1ccc(B(O)O)cc1-c1ccc2c(O)nncc2c1` [Example 160, [3-(1-hydroxyphthalazin-6-yl)-4-methoxyphenyl]boronic Acid]: the IC50 is greater than 25100 nM. As to `COc1ccc(B(O)O)cc1-c1ccc2ccncc2c1` [Example 161, [3-(isoquinolin-7-yl)-4-methoxyphenyl]boronic Acid], the IC50 is greater than 25100 nM. For the compound `COc1ccc(B(O)O)cc1-c1cc(OC)c2ccnnc2c1` [Example 162, [4-methoxy-3-(5-methoxycinnoline-7-yl)phenyl]boronic Acid], the IC50 is greater than 25100 nM. With `CC(F)(F)Oc1ccc(B(O)O)cc1-c1ccc2c(N)cnnc2c1` [Example 163, [3-(4-aminocinnolin-7-yl)-4-(1,1-difluoroethoxy)phenyl]boronic Acid Formic Acid Salt] the figure was 1.05 nM; with `CS(=O)(=O)c1ccc(B(O)O)cc1-c1ccc2c(N)cnnc2c1` [Example 164, [3-(4-aminocinnolin-7-yl)-4-methylsulfonylphenyl]boronic acid formic acid salt], 12.6 nM; with `Nc1cnnc2cc(-c3cc(B(O)O)ccc3N3CCNS3(=O)=O)ccc12` [Example 165, [3-(4-aminocinnolin-7-yl)-4-(1,1-dioxo-1,2,5-thiadiazolidin-2-yl)phenyl]boronic Acid], 7.41 nM. `Nc1cnnc2cc(-c3cc(B(O)O)ccc3Oc3ccc(F)cc3)ccc12` [Example 167, [3-(4-aminocinnolin-7-yl)-4-(4-fluorophenoxy)phenyl]boronic Acid Formic Acid Salt]: the IC50 was 1.66 nM. On to `Nc1cnnc2cc(-c3cc(B(O)O)ccc3Oc3cncs3)ccc12` [Example 168, [3-(4-aminocinnolin-7-yl)-4-(1,3-thiazol-5-yloxy)phenyl]boronic Acid Formic Acid Salt], for which the IC50 is 1.32 nM. With `Nc1cnnc2cc(-c3cc(B(O)O)ccc3Oc3nccs3)ccc12` [Example 169, [3-(4-aminocinnolin-7-yl)-4-(1,3-thiazol-2-yloxy)phenyl]boronic Acid Formic Acid Salt] the figure was 1.45 nM. Turning to `CC1(C)Cc2cc(B(O)O)cc(-c3ccc4c(N)cnnc4c3)c2O1` [Example 170, [7-(4-aminocinnolin-7-yl)-2,2-dimethyl-2,3-dihydro-1-benzofuran-5-yl]boronic Acid Formic Acid Salt], the IC50 is 1.07 nM. With `Cc1ncc(Oc2ccc(B(O)O)cc2-c2ccc3c(N)cnnc3c2)s1` [Example 171, [3-(4-aminocinnolin-7-yl)-4-(2-methylthiazol-5-yl)oxy-phenyl]Boronic Acid Formic Acid Salt] the figure was 1.29 nM.
